US9951094B2, “Phosphole compound and fluorescent dye containing the same” (NATIONAL UNIVERSITY CORPORATION NAGOYA UNIVERSITY, priority 2014, dated 2018)
Marks after values point to notes of the source that are not given here.

Tests used:
Format in all cases: physicochemical
[1] = Fluorescence spectra in solvents
Experimental: (§1) The optical properties of compounds 1 to 3, 6b to 6d, 7a, and 7b were evaluated. Ultraviolet-visible (UV-Vis) absorption and fluorescence spectra were measured with an UV-Vis-NIR spectrophotometer UV-3150 (Shimadzu) and a fluorescence spectrophotometer F-4500 (Hitachi), respectively. Absolute fluorescence quantum yield was determined with an absolute PL quantum yield measurement instruments C9920-02 or C11347-01 (Hamamatsu Photonics). Sample solutions of all the samples were prepared using spectral grade solvents purchased from Nacalai Tesque, and were each measured with a 1 cm square quartz cuvette. The concentrations of each sample for the measurement of UV-Vis absorption spectra were set for ca. 10^−5 M. The concentrations of each sample for the measurement of fluorescence spectra were adjusted in a range where concentration quenching would not occur. For the measurement of absolute fluorescence quantum yield, each sample solution was deaerated by purging with an argon gas stream for several minutes prior to the measurements. The orientation polarizabilities Δf of hexane, ethyl acetate, and methanol, which are not shown in the Tables, were −0.000518, 0.201, and 0.309, respectively.

[2] = Absolute fluorescence quantum yield in solvents
Experimental: as §1

[3] = UV-Vis absorption spectra in solvents
Experimental: as §1

[4] = Photobleaching resistance, 403 nm laser irradiation of acetonitrile solutions; details: acetonitrile solution, 403 nm laser light, 120 minutes; FIG. 2
Experimental: Solutions of compounds 1, 2 (6a), 6b, 7a, 7b, and a known fluorescent dye Alexa-430 each in acetonitrile were prepared so that their absorbances are in the range from 0.39 to 0.44. The concentration of each compound in the solution was 2.35×10^−5 M for compound 1, 2.17×10^−5 M for compound 2 (6a), 1.25×10^−5 M for compound 6b, 3.30×10^−5 M for compound 7a, and 2.04×10^−5 M for compound 7b. […] Immediately after preparation of each acetonitrile solution, the molar absorption coefficient of the acetonitrile solution was measured. Then, the molar absorption coefficient of the acetonitrile solution was measured after each of irradiations with 403 nm laser light for 20 minutes, 60 minutes, and 120 minutes, and the relative absorbance was determined relative to the molar absorption coefficient before laser light irradiation (immediately after preparation of the solution).

[5] = cyclohexane, apparatus C11347-01, self-absorption correction
[6] = cyclohexane, apparatus C11347-01
[7] = ethyl acetate, apparatus C11347-01

| SMILES | Emission Maximum Wavelength λ em ([1]; CH2Cl2) | Emission Maximum Wavelength λ em ([1]; DMF) | Emission Maximum Wavelength λ em ([1]; benzene) | Fluorescence Quantum Yield φF [2, 5] | Absorption Maximum Wavelength λ max ([3]; CH2Cl2) | Molar Absorption Coefficient ϵ ([3]; CH2Cl2) | Absorption Maximum Wavelength λ max ([3]; DMF) | Molar Absorption Coefficient ϵ ([3]; DMF) | Absorption Maximum Wavelength λ max ([3]; benzene) | Emission Maximum Wavelength λ em ([1]; CH3CN) | Emission Maximum Wavelength λ em ([1]; EtOH) | Emission Maximum Wavelength λ em ([1]; cyclohexane) | Fluorescence Quantum Yield φF ([2]; CH3CN, apparatus C11347-01) | Absorption Maximum Wavelength λ max ([3]; CH3CN) | Absorption Maximum Wavelength λ max ([3]; EtOH) | Molar Absorption Coefficient ϵ ([3]; EtOH) | Absorption Maximum Wavelength λ max ([3]; cyclohexane) | Molar Absorption Coefficient ϵ ([3]; cyclohexane) | Fluorescence Quantum Yield φF ([2]; EtOH, apparatus C11347-01) | Molar Absorption Coefficient ϵ ([3]; CH3CN) | other results |
| --- | --- | --- | --- | --- | --- | --- | --- | --- | --- | --- | --- | --- | --- | --- | --- | --- | --- | --- | --- | --- | --- |
| O=P1(c2ccccc2)C(c2ccc(N(c3ccccc3)c3ccccc3)cc2)=C(c2ccccc2)c2ccccc21 (centres unmarked) [Compound 1, 2-[4-(N,N-diphenylamino)phenyl]-1,3-diphenylbenzo[b]phosphole-P-oxide] | 561 nm | 598 nm | 531 nm | 0.92^a,c | 416 nm | 1.76 10^4M^−1 cm^−1 | 409 nm | 1.77 10^4M^−1 cm^−1 | 416 nm | 597 nm | 595 nm | 508 nm | 0.67^a | 404 nm | 417 nm | 1.68 10^4M^−1 cm^−1 | 412 nm | 1.82 10^4M^−1 cm^−1 | – | – | Fluorescence in various solvents from low-polarity to high-polarity solvents [1]: strong fluorescence; Emission Maximum Wavelength λ em ([1]; CHCl3): 551 nm; Shift of fluorescence wavelength as the polarity of the solvent increases ([1]; Table 1 solvents): shifted to the longer wavelength; Fluorescence Quantum Yield φF ([2]; CH2Cl2, apparatus C9920-02): 0.84^b; Fluorescence Quantum Yield φF ([2]; CHCl3, apparatus C9920-02): 0.89^b; Fluorescence Quantum Yield φF ([2]; DMF, apparatus C9920-02): 0.71^b; Fluorescence Quantum Yield φF ([2]; benzene, apparatus C9920-02): 0.89^b; Absorption Maximum Wavelength λ max ([3]; CHCl3): 418 nm; Molar Absorption Coefficient ϵ ([3]; CHCl3): 1.78 10^4M^−1 cm^−1; Molar Absorption Coefficient ϵ ([3]; benzene): 1.88 10^4M^−1 cm^−1 |
| O=P1(c2ccccc2)C(c2ccc(N(c3ccccc3)c3ccccc3)cc2)=Cc2cc3ccccc3cc21 (centres unmarked) [Compound 6b] | 533 nm | – | – | – | 414 nm | 3.66 10^4M^−1 cm^−1 | – | – | – | 563 nm | 550 nm | 450 nm | 0.80 | 405 nm | 413 nm | 2.67 10^4M^−1 cm^−1 | 409 nm | 4.17 10^4M^−1 cm^−1 | 0.79 | 3.25 10^4M^−1 cm^−1 | Fluorescence Quantum Yield φF ([2]; CH2Cl2, apparatus C11347-01): 0.95; Fluorescence Quantum Yield φF [2, 6]: 0.90; Resistance to photobleaching (relative absorbance) [4]: outstanding resistance to photobleaching |
| O=P1(c2ccccc2)C(c2cc3c4c(c2)CCCN4CCC3)=Cc2cc3ccccc3cc21 (centres unmarked) [Compound 6c] | – | – | – | – | – | – | – | – | – | 580 nm | 583 nm | 466 nm | 0.71 | 425 nm | 429 nm | 2.33 10^4M^−1 cm^−1 | 420 nm | 2.38 10^4M^−1 cm^−1 | 0.67 | 2.35 10^4M^−1 cm^−1 | Emission Maximum Wavelength λ em ([1]; ethyl acetate): 538 nm; Fluorescence Quantum Yield φF [2, 6]: 0.90; Fluorescence Quantum Yield φF [2, 7]: 0.90; Absorption Maximum Wavelength λ max ([3]; ethyl acetate): 420 nm; Molar Absorption Coefficient ϵ ([3]; ethyl acetate): 2.38 10^4M^−1 cm^−1 |
| O=P1(c2ccccc2)C(c2ccc(N(c3ccccc3)c3ccccc3)cc2)=Cc2ccc3ccccc3c21 (centres unmarked) [Compound 6d] | – | – | – | – | – | – | – | – | – | 620 nm | 611 nm | 495 nm | 0.58 | 439 nm | 448 nm | 1.94 10^4M^−1 cm^−1 | 440 nm | 1.81 10^4M^−1 cm^−1 | 0.51 | 2.07 10^4M^−1 cm^−1 | Emission Maximum Wavelength λ em ([1]; ethyl acetate): 564 nm; Fluorescence Quantum Yield φF [2, 6]: 0.92; Fluorescence Quantum Yield φF [2, 7]: 0.90; Absorption Maximum Wavelength λ max ([3]; ethyl acetate): 436 nm; Molar Absorption Coefficient ϵ ([3]; ethyl acetate): 2.02 10^4M^−1 cm^−1 |

Continued, in another order:

| Emission Maximum Wavelength λ em ([1]; CH2Cl2) | Emission Maximum Wavelength λ em ([1]; DMF) | Emission Maximum Wavelength λ em ([1]; benzene) | Fluorescence Quantum Yield φF [2, 5] | Absorption Maximum Wavelength λ max ([3]; CH2Cl2) | Molar Absorption Coefficient ϵ ([3]; CH2Cl2) | Absorption Maximum Wavelength λ max ([3]; DMF) | Molar Absorption Coefficient ϵ ([3]; DMF) | Absorption Maximum Wavelength λ max ([3]; benzene) | SMILES | Emission Maximum Wavelength λ em ([1]; CH3CN) | Emission Maximum Wavelength λ em ([1]; EtOH) | Emission Maximum Wavelength λ em ([1]; cyclohexane) | Fluorescence Quantum Yield φF ([2]; CH3CN, apparatus C11347-01) | Absorption Maximum Wavelength λ max ([3]; CH3CN) | Absorption Maximum Wavelength λ max ([3]; EtOH) | Molar Absorption Coefficient ϵ ([3]; EtOH) | Absorption Maximum Wavelength λ max ([3]; cyclohexane) | Molar Absorption Coefficient ϵ ([3]; cyclohexane) | Fluorescence Quantum Yield φF ([2]; EtOH, apparatus C11347-01) | Molar Absorption Coefficient ϵ ([3]; CH3CN) | other results |
| --- | --- | --- | --- | --- | --- | --- | --- | --- | --- | --- | --- | --- | --- | --- | --- | --- | --- | --- | --- | --- | --- |
| 543 nm | 564 nm | 497 nm | 0.93^b | 413 nm | 1.75 10^4M^−1 cm^−1 | 409 nm | 1.71 10^4M^−1 cm^−1 | 414 nm | O=P1(c2ccccc2)C(c2ccc(N(c3ccccc3)c3ccccc3)cc2)=Cc2ccccc21 (centres unmarked) [Compound 2, 2-[4-(N,N-diphenylamino)phenyl]-1-phenylbenzo[b]phosphole-P-oxide] | 571 nm | 565 nm | 456 nm | 0.61 | 406 nm | 416 nm | 1.78 10^4M^−1 cm^−1 | 410 nm | 1.95 10^4M^−1 cm^−1 | 0.57 | 1.77 10^4M^−1 cm^−1 | Fluorescence Quantum Yield φF ([2]; CH2Cl2, apparatus C11347-01): 0.91; Fluorescence Quantum Yield φF ([2]; DMF, apparatus C11347-01): 0.67; Fluorescence Quantum Yield φF ([2]; benzene, apparatus C11347-01): 0.97; Molar Absorption Coefficient ϵ ([3]; benzene): 1.91 10^4M^−1 cm^−1 |
| 532 nm | 559 nm | 507 nm | 0.91^b | 412 nm | 1.71 10^4M^−1 cm^−1 | 412 nm | 1.73 10^4M^−1 cm^−1 | 410 nm | CN(C)c1ccc(C2=Cc3ccccc3P2(=O)c2ccccc2)cc1 (centres unmarked) [Compound 3, 2-[4-(N,N-dimethylamino)phenyl]-1-phenylbenzo[b]phosphole-P-oxide] | 558 nm | 565 nm | 456 nm | 0.89 | 408 nm | 415 nm | 1.69 10^4M^−1 cm^−1 | 401 nm | – | 0.82 | 1.73 10^4M^−1 cm^−1 | Fluorescence Quantum Yield φF ([2]; CH2Cl2, apparatus C11347-01): 0.93; Fluorescence Quantum Yield φF ([2]; DMF, apparatus C11347-01): 0.88; Absolute fluorescence quantum yield compared with compound 2 ([2]; Tables 2 and 3): higher absolute fluorescence quantum yield than compound 2; Fluorescence Quantum Yield φF ([2]; benzene, apparatus C11347-01): 0.95; Molar Absorption Coefficient ϵ ([3]; benzene): 1.89 10^4M^−1 cm^−1 |
